In publication PMC11595589, “A Pharmacokinetic and Bioavailability Study of Ecklonia cava Phlorotannins Following Intravenous and Oral Administration in Sprague–Dawley Rats” (Marine Drugs, 2024):
“Also recorded” adds a separate entry of the source. Like-named read-outs stand apart in the source and are kept apart here. Marks after values point to notes of the source that are not given here.

Legend:
[1] = Single-dose pharmacokinetics and bioavailability after oral gavage administration of EK-ECP; type: in vivo, male Sprague–Dawley rats; settings: for Tlast / Tmax: median (minimum-maximum); for half-life / AUC(0-t): po; for Vd/F: read-out: Vz/F
Method: (§1) EK-ECP was administered to male Sprague–Dawley rats by either IV bolus (Group 1, 10 mg/kg) or oral gavage (Groups 2, 3 or 4, at 10, 100 or 1000 mg/kg, respectively) administration. Blood collection intervals were pre dose (0), and 0.25, 0.5, 1, 2, 4, 6, 8, 12, 24 and 36 h post dose. Plasma samples were analyzed for concentrations of 8,8′-bieckol, dieckol, and PFF-A; all pre-dose sample results were less than the lower limit of quantitation (LLOQ < 1 ng/mL). The time profiles of the plasma concentrations of 8,8′-bieckol, dieckol, and PFF-A in individual animals are illustrated in Figure 4. The mean pharmacokinetic parameters and corresponding coefficient of variation (CV) following IV administration of 10 mg/kg EK-ECP to male rats are illustrated in Table 1. Those following oral administrations of 10, 100 and 1000 mg/kg EK-ECP to male rats are illustrated in Table 2.
(§2) Total of 20 male CD® [Crl:CD®(SD)] rats (approximately 11.5 weeks of age) obtained from Charles River Laboratories (Portage, MI, USA) were used in our study. These included five rats with both jugular and femoral vein cannulations, and 15 rats with jugular vein cannulations. Of the 20 animals received, 16 male rats were placed in the study, comprising four rats with both jugular and femoral vein cannulations, and 12 rats with jugular vein cannulations. The rats were housed in the Mattawan facility of MPI Research Inc (currently Charles River Laboratories, Mattawan, MI, USA). Animal welfare for this study was in compliance with the U.S. Department of Agriculture’s (USDA) Animal Welfare Act (9 CFR Parts 1, 2 and 3). This facility maintained an animal welfare assurance statement with the National Institutes of Health Office of Laboratory Animal Welfare. All procedures were approved before the study by the institutional animal care utilization committee. Animals were individually housed and fed a basal diet of Lab Diet Certified Rodent Diet #5002, PMI Nutrition International, Inc. Food and water was available ad libitum except during fasting periods, when food was withheld, and during any required restraint periods, when both food and water were withheld. Animal rooms were maintained at (20 ± 2) °C and (50 ± 20)% relative humidity with a 12 h light/dark cycle throughout the study.
(§3) For intravenous administration, EK-ECP was dissolved in 70/25/5 (v/v) phosphate-buffered saline (PBS)/propylene glycol/ethanol (pH 5.1 final concentration of 2 mg/mL) and stabilized at room temperature for 24 h. For oral administration, after an amount of EK-ECP appropriate to the final targeted formulation concentrations was weighed and placed in a bottle, a small amount of the vehicle (water for injection) was added and mixed using a vortex mixer and heated to between 60 to 70 °C until homogeneously suspended. Additional amounts of the vehicle were gradually added to yield the targeted EK-ECP concentrations (1, 10, and 100 mg/mL). Dosing occurred within 4 h after preparation completion. The individual constituent doses of dieckol, 8,8′-bieckol, and PFF-A in each dosing formulation were analyzed by RP-HPLC followed by interpolation of the corresponding area% to the calibration curve prepared with known concentrations of isolated standards. The animals were fasted for a minimum of 4 h prior to dosing and through the first 4 h of blood sample collection. Each animal in Group 1 received a single intravenous (IV) dose of the 10 mg/kg EK-ECP. The intravenous doses were administered as a slow bolus injection over 5 min through the femoral vein cannula. The cannula was flushed with approximately 0.3 mL of sterile 0.9% sodium chloride for injection, USP, immediately following dosing. Each animal in Groups 2, 3 and 4 received a single oral (PO) gavage dose of the appropriate test article formulation, as outlined Table 3. Oral gavage dosing formulations were continuously stirred throughout dosing. […]

[2] = Single-dose pharmacokinetics after IV bolus administration of EK-ECP; type: in vivo, male Sprague–Dawley rats; settings: IV bolus 10 mg/kg EK-ECP; for T1/2 (terminal half-life) / half-life / AUC(0-t) / Vd / AUC(0-inf) / MRT last / C0: mean (CV); for T1/2 (terminal half-life) / half-life / AUC(0-t) / Vd: 10 mg/kg; for Tlast: median (minimum-maximum); for half-life / AUC(0-t) / Vd / AUC(0-inf) / MRT last / C0 / clearance: male, Sprague-Dawley, rat; for half-life / AUC(0-t) / Vd: iv; for clearance: read-out: Mean clearance (Cl) (converted)
Method: as §1, §2, §3

[3] = test system: mouse-model; set-up: method as in PMID 16042079; settings: oral administration, mouse model ref 64; cited from earlier work
[4] = stated in the discussion without data or reference; cited from earlier work
[5] = PO 1000 mg/kg EK-ECP (Group 4), PFF-A in a single rat
[6] = male, Sprague-Dawley, rat, in vivo, PO 100 mg/kg EK-ECP, mean (CV)
[7] = male, Sprague-Dawley, rat, in vivo, PO 1000 mg/kg EK-ECP, mean (CV)

Q: For `Oc1cc(O)cc(Oc2c(O)cc(O)c3c2Oc2c(cc(O)c(-c4c(O)cc5c(c4O)Oc4c(Oc6cc(O)cc(O)c6)c(O)cc(O)c4O5)c2O)O3)c1` [8,8′-bieckol], which “plasma concentrations quantifiable up to” value ([1]; PO 100 mg/kg EK-ECP (Group 3)) is on record?
A: 12 h

Q: What about the Tlast ([1]; PO 100 mg/kg EK-ECP) of the same molecule?
A: 8 (8–12) h

Q: And the “plasma concentrations quantifiable up to” value [1, 5]?
A: 36 h

Q: And the “Effective T1/2” value ([1]; PO 1000 mg/kg EK-ECP, mean (CV), ln(2)·MRTlast, 1000 mg/kg)?
A: 4.11 (16) h

Q: What about the Tlast ([1]; PO 1000 mg/kg EK-ECP) of the same molecule?
A: 36 (36–36) h

Q: And the “fold increase in AUCTlast for a 1:10-fold increase in dose” value ([1]; PO 100 to 1000 mg/kg EK-ECP)?
A: ~84 fold

Q: What about the “fold increase in Cmax for a 1:10-fold increase in dose” value ([1]; PO 100 to 1000 mg/kg EK-ECP) of the same molecule?
A: ~71 fold

Q: What about the half-life ([1]; male, Sprague-Dawley, rat, in vivo, 100 mg/kg, PO 100 mg/kg EK-ECP, mean (CV), ln(2)·MRTlast, read-out: Effective T1/2 (converted)) of the same molecule?
A: 2.24 h

Q: What about the AUC(0-t) ([1]; male, Sprague-Dawley, rat, in vivo, 100 mg/kg, PO 100 mg/kg EK-ECP, mean (CV), read-out: AUC(0–24h)) of the same molecule?
A: 41.5 ng·h/mL

Q: What about the AUC(0-t) ([1]; male, Sprague-Dawley, rat, in vivo, 100 mg/kg, PO 100 mg/kg EK-ECP, mean (CV), read-out: AUCTlast) of the same molecule?
A: 37.7 ng·h/mL

Q: What about the half-life ([1]; male, Sprague-Dawley, rat, in vivo, 100 mg/kg, PO 100 mg/kg EK-ECP, mean (CV), read-out: T1/2 (terminal half-life) (converted)) of the same molecule?
A: 2.95 h

Q: What about the half-life ([1]; male, Sprague-Dawley, rat, in vivo, 1000 mg/kg, PO 1000 mg/kg EK-ECP, mean (CV), ln(2)·MRTlast, read-out: Effective T1/2 (converted)) of the same molecule?
A: 4.41 h

Q: What about the AUC(0-t) ([1]; male, Sprague-Dawley, rat, in vivo, 1000 mg/kg, PO 1000 mg/kg EK-ECP, mean (CV), read-out: AUC(0–24h)) of the same molecule?
A: 3050 ng·h/mL

Q: What about the AUC(0-t) ([1]; male, Sprague-Dawley, rat, in vivo, 1000 mg/kg, PO 1000 mg/kg EK-ECP, mean (CV), read-out: AUCTlast) of the same molecule?
A: 3170 ng·h/mL

Q: What about the half-life ([1]; male, Sprague-Dawley, rat, in vivo, 1000 mg/kg, PO 1000 mg/kg EK-ECP, mean (CV), read-out: T1/2 (terminal half-life) (converted)) of the same molecule?
A: 6.63 h

Q: And the bioavailability ([1]; male, Sprague-Dawley, rat, in vivo, 100 and 1000 mg/kg oral dose of EK-ECP versus IV 10 mg/kg, dose-corrected, read-out: Bioavailability following oral gavage administration)?
A: 0.069 to 0.5%

Q: What about the Cmax ([1]; male, Sprague-Dawley, rat, in vivo, PO 100 mg/kg EK-ECP (Group 3), mean (CV)) of the same molecule?
A: 11.2 ng/mL

Q: And the AUC(0-inf) [1, 6]?
A: 44 ng·h/mL

Q: What about the MRT last [1, 6] of the same molecule?
A: 3.23 h

Q: And the Vd/F [1, 6]?
A: 1060 L/kg

Q: What about the Tmax ([1]; male, Sprague-Dawley, rat, in vivo, PO 100 mg/kg EK-ECP) of the same molecule?
A: 0.25 to 4 h

Q: And the Cmax ([1]; male, Sprague-Dawley, rat, in vivo, PO 1000 mg/kg EK-ECP (Group 4), mean (CV), PFF-A N = 1)?
A: 795 ng/mL

Q: And the AUC(0-inf) [1, 7]?
A: 3210 ng·h/mL

Q: And the MRT last [1, 7]?
A: 5.93 h

Q: What about the Vd/F [1, 7] of the same molecule?
A: 342 L/kg

Q: And the Tmax ([1]; male, Sprague-Dawley, rat, in vivo, PO 1000 mg/kg EK-ECP)?
A: 0.5 h

Q: And the “plasma concentrations quantifiable up to” value [2]?
A: 36 h

Q: And the “T1/2 (terminal half-life)” value [2]?
A: 9.42 (9) h

Q: What about the Tlast [2] of the same molecule?
A: 36 (36–36) h

Q: And the half-life ([2]; in vivo, ln(2)·MRTlast, read-out: Effective T1/2 (converted))?
A: 1.3 h

Q: What about the AUC(0-t) ([2]; in vivo, read-out: AUC(0–24h)) of the same molecule?
A: 6540 ng·h/mL

Q: What about the AUC(0-t) ([2]; in vivo, read-out: AUCTlast) of the same molecule?
A: 6620 ng·h/mL

Q: And the half-life ([2]; in vivo, read-out: T1/2 (terminal half-life) (converted))?
A: ~9.42 h

Q: What about the Vd ([2]; in vivo, read-out: Vss) of the same molecule?
A: 0.366 L/kg

Q: What about the Vd ([2]; in vivo, read-out: Vz) of the same molecule?
A: 2.2 L/kg

Q: What about the AUC(0-inf) ([2]; in vivo) of the same molecule?
A: 6670 ng·h/mL

Q: And the MRT last ([2]; in vivo)?
A: 1.88 h

Q: And the C0 ([2]; in vivo, plasma)?
A: 7220 ng/mL

Q: And the clearance ([2]; in vivo)?
A: 2.7 mL/min/kg

Q: Which results are given for `Oc1cc(O)cc(Oc2c(O)cc(O)c3c2Oc2c(O)cc4oc5c(Oc6cc(O)cc(O)c6)c(O)cc(O)c5c4c2O3)c1` [PFF-A, phlorofucofuroeckol-A]?
A: plasma concentrations ([1]; PO 100 mg/kg EK-ECP (Group 3), LLOQ 1 ng/mL, 100 mg/kg): below the lower limit of quantitation; also recorded: below the quantifiable limit; plasma concentrations quantifiable up to [1, 5]: 1 h; Cmax ([1]; male, Sprague-Dawley, rat, plasma, PO 1000 mg/kg EK-ECP (Group 4), mean (CV), PFF-A N = 1): 1.58 ng/mL; Tmax ([1]; male, Sprague-Dawley, rat, plasma, PO 1000 mg/kg EK-ECP): 0.5 h; plasma concentrations quantifiable up to [2]: 2 h; T1/2 (terminal half-life) [2]: 0.731 (4) ^c h; Tlast [2]: 2 (1–2) h; half-life ([2]; plasma, ln(2)·MRTlast, read-out: Effective T1/2 (converted)): 0.36 h; AUC(0-t) ([2]; plasma, read-out: AUC(0–24h)): 9.03 ng·h/mL; AUC(0-t) ([2]; plasma, read-out: AUCTlast): 7.81 ng·h/mL; half-life ([2]; plasma, read-out: T1/2 (terminal half-life) (converted)): ~0.731 h; Vd ([2]; plasma, read-out: Vss): 77.6 L/kg; Vd ([2]; plasma, read-out: Vz): 89.2 L/kg; AUC(0-inf) ([2]; plasma): 10.1 ng·h/mL; MRT last ([2]; plasma): 0.52 h; clearance ([2]; plasma): 1400 mL/min/kg; C0 ([2]; plasma): 12.8 ng/mL; oral dose with CNS-directed effect (as low as) [3]: 0.2 mg/kg/bw; solubility in water [4]: virtually insoluble in water
